According to the supplement of paper PMC10307832:

What was measured:
Assay in all cases: relative viability (nuclei count vs DMSO), 5 days (fraction); higher = more cells survive
[1] = compound: Nc1nc(Nc2ccc3c(c2)CC[C@@H](N2CCCC2)CC3)nn1-c1cc2c(nn1)-c1ccccc1CCC2 [Bemcentinib] + Nc1ncn([C@H]2C[C@H](O)[C@@H](CO)O2)c(=O)n1 [Decitabine] (partner 2 µM)
In short: (§1)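 Relative viability was taken as the ratio of nuclei in treated wells to nuclei in vehicle wells. Lung cancer cell lines in 1536-well plates received compounds by pin tool one day after seeding, either one drug alone or a fixed anchor-drug dose plus five library-drug doses (not always all listed) in √10 steps. Nuclei were counted on 4× images after 5 days of treatment, and values are medians of duplicate plates.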

[2] = compound: CNC(=O)c1ccccc1Sc1ccc2c(/C=C/c3ccccn3)n[nH]c2c1 [Axitinib] + O=C(c1cc(Cc2n[nH]c(=O)c3ccccc23)ccc1F)N1CCN(C(=O)C2CC2)CC1 [Olaparib] (partner 8 µM)
In short: as §1

[3] = compound: Nc1nc(Nc2ccc3c(c2)CC[C@@H](N2CCCC2)CC3)nn1-c1cc2c(nn1)-c1ccccc1CCC2 [Bemcentinib] + CS(=O)(=O)CCNCc1ccc(-c2ccc3ncnc(Nc4ccc(OCc5cccc(F)c5)c(Cl)c4)c3c2)o1 [Lapatinib] (partner 2 µM)
In short: as §1

[4] = compound: CNC(=O)c1ccccc1Sc1ccc2c(/C=C/c3ccccn3)n[nH]c2c1 [Axitinib] + CCNC(=O)c1noc(-c2cc(C(C)C)c(O)cc2O)c1-c1ccc(CN2CCOCC2)cc1 [Luminespib] (partner 0.01 µM)
In short: as §1

Row | Cell Line | relative viability ([1]; first compound 0.04 µM) | relative viability ([1]; first compound 0.1265 µM) | relative viability ([1]; first compound 0.4 µM) | relative viability ([1]; first compound 1.265 µM) | relative viability ([1]; first compound 4 µM) | relative viability ([2]; first compound 0.005 µM) | relative viability ([2]; first compound 0.01581 µM) | relative viability ([2]; first compound 0.05 µM) | relative viability ([2]; first compound 0.1581 µM) | relative viability ([2]; first compound 0.5 µM) | relative viability ([3]; first compound 0.04 µM) | relative viability ([3]; first compound 0.1265 µM) | relative viability ([3]; first compound 0.4 µM) | relative viability ([3]; first compound 1.265 µM) | relative viability ([3]; first compound 4 µM) | relative viability ([4]; first compound 0.005 µM) | relative viability ([4]; first compound 0.01581 µM) | relative viability ([4]; first compound 0.05 µM) | relative viability ([4]; first compound 0.1581 µM) | relative viability ([4]; first compound 0.5 µM)
1 | 201T | 0.827 | 0.903 | 0.893 | 0.979 | 0.868 | 0.861 | 0.805 | 0.795 | 0.859 | 0.875 | 1 | 1.02 | 1.02 | 1.03 | 1.06 | 1.04 | 1.04 | 1.09 | 0.989 | 1.04
2 | A549 | 0.248 | 0.247 | 0.319 | 0.296 | 0.26 | 0.471 | 0.36 | 0.373 | 0.327 | 0.412 | 0.954 | 0.999 | 1.14 | 0.956 | 1.02 | – | – | – | – | –
3 | A-427 | 0.569 | 0.525 | 0.502 | 0.57 | 0.559 | 0.778 | 0.843 | 0.803 | 0.753 | 1.01 | – | 0.959 | 1.06 | 1.09 | 1.03 | 0.998 | 1.03 | 1.03 | 0.926 | 0.919
4 | ABC-1 | 0.899 | 1.23 | 1.03 | 0.835 | 1.14 | 0.735 | – | 0.659 | 0.974 | 0.78 | 1.33 | 1.36 | 1.33 | 0.998 | 1.26 | 0.777 | 0.727 | 0.444 | – | 0.552
5 | BEN | 0.696 | 0.784 | 0.762 | 0.629 | 0.677 | 1.17 | 1.42 | 0.903 | 1.02 | 1.07 | 0.488 | 0.844 | 0.807 | 0.531 | 0.734 | 0.486 | 0.309 | 0.509 | 0.372 | 0.226
6 | CAL-12T | – | – | – | – | – | 0.736 | 0.716 | 0.736 | 0.698 | 0.701 | 0.556 | 0.598 | 0.599 | 0.597 | 0.652 | 0.96 | 0.302 | 0.216 | 0.672 | 0.364
7 | COR-L23 | 0.465 | 0.467 | 0.481 | 0.472 | 0.456 | 0.367 | 0.376 | 0.326 | 0.363 | 0.387 | 1.18 | 0.997 | 1.14 | 1.05 | 1.02 | 0.667 | 0.614 | 0.744 | 0.631 | 0.749
8 | COR-L 105 | 0.593 | 0.721 | 0.678 | 0.67 | 0.667 | 0.805 | 0.721 | 0.647 | 0.962 | 0.797 | 0.311 | 0.327 | 0.416 | 0.338 | 0.394 | 0.628 | 0.922 | 0.669 | 0.64 | 0.81
9 | Calu-6 | – | – | – | – | – | 0.554 | 0.605 | 0.607 | 0.555 | 0.681 | 1.02 | 1.25 | 1.34 | 1.13 | 1.11 | – | – | – | – | –
10 | ChaGo-K-1 | 0.566 | 0.537 | 0.538 | 0.536 | 0.556 | 0.473 | 0.445 | 0.412 | 0.441 | 0.438 | – | – | – | – | – | 0.591 | 0.703 | 0.44 | 0.495 | 0.533
11 | EBC-1 | – | – | – | – | – | 0.788 | 0.648 | 0.768 | 0.69 | 0.769 | 0.203 | 0.189 | 0.302 | 0.204 | 0.221 | – | – | – | – | –
12 | EKVX | 0.325 | 0.345 | 0.292 | 0.345 | 0.39 | 0.979 | 0.826 | 0.902 | 0.883 | 1.03 | 0.186 | 0.218 | 0.199 | 0.213 | 0.196 | 0.879 | 0.86 | 0.828 | 0.878 | 0.965
13 | EMC-BAC-2 | 0.955 | 1 | 1.12 | 0.997 | 1.01 | 0.5 | 0.542 | 0.516 | 0.512 | 0.508 | 0.917 | 0.959 | 0.957 | 0.878 | 0.898 | 1.27 | 1.12 | 1.19 | 1.21 | 1.25
14 | EPLC-272H | 0.373 | 0.361 | 0.387 | 0.397 | 0.399 | 0.845 | 0.927 | 0.884 | 0.475 | 1.13 | – | 0.958 | 1.01 | 0.962 | 1.02 | 0.332 | 0.376 | 0.338 | 0.251 | 0.314
15 | H3255 | – | 0.574 | 0.681 | 0.648 | 0.68 | 0.615 | 0.565 | 0.566 | 0.572 | 0.639 | 0.222 | 0.352 | 0.229 | 0.237 | 0.191 | 0.922 | 0.609 | 0.935 | 0.83 | 0.828
16 | HARA | 0.578 | 0.651 | 0.561 | 0.556 | 0.518 | 1.02 | 0.88 | 0.835 | 0.95 | 0.921 | 0.668 | 0.928 | 0.788 | 0.865 | 0.469 | 0.791 | 0.823 | 0.901 | 0.721 | 0.639
17 | HCC-15 | 0.641 | 0.696 | 0.71 | 0.646 | 0.661 | 0.77 | 0.75 | 0.766 | 0.682 | 0.667 | 0.883 | 0.954 | 0.884 | 0.895 | 0.903 | 0.306 | 0.325 | 0.307 | 0.301 | 0.338
18 | HCC-44 | 0.954 | 0.986 | 0.947 | 0.978 | 0.957 | 0.955 | 0.961 | 0.963 | 0.947 | 1 | 1.06 | 1.07 | 1.14 | 1.1 | 1.06 | 1.07 | 1.07 | 0.484 | 1.04 | 1.35
